Measurements: ChEMBL document CHEMBL4507302, “Data for DCP probe TP-020” (2021)

Key:
[1] = target: Tyrosine-protein kinase Yes (Homo sapiens) (UniProt P07947); conditions: Compound concentration 1000.0 nM
[2] = target: Tyrosine-protein kinase Lck (Homo sapiens) (UniProt P06239); conditions: Compound concentration 1000.0 nM
[3] = tested on: Epidermal growth factor receptor (Homo sapiens), P00533 [L861Q]; conditions: Compound concentration 1000.0 nM
[4] = target: Phosphorylase b kinase gamma catalytic chain, skeletal muscle/heart isoform (Homo sapiens) (UniProt Q16816); conditions: Compound concentration 1000.0 nM
[5] = tested on: Tyrosine-protein kinase ABL1 (Homo sapiens), P00519 [E255K]; conditions: Compound concentration 1000.0 nM
[6] = target: BMP-2-inducible protein kinase (Homo sapiens) (UniProt Q9NSY1); conditions: Compound concentration 1000.0 nM
[7] = target: Phosphatidylinositol 4-phosphate 3-kinase C2 domain-containing subunit beta (Homo sapiens) (UniProt O00750); conditions: Compound concentration 1000.0 nM
[8] = target: Serine/threonine-protein kinase RIO3 (Homo sapiens) (UniProt O14730); conditions: Compound concentration 1000.0 nM
[9] = target: Homeodomain-interacting protein kinase 3 (Homo sapiens) (UniProt Q9H422); conditions: Compound concentration 1000.0 nM
[10] = target: Serine/threonine-protein kinase WNK3 (Homo sapiens) (UniProt Q9BYP7); conditions: Compound concentration 1000.0 nM
[11] = target: Ephrin type-B receptor 3 (Homo sapiens) (UniProt P54753); conditions: Compound concentration 1000.0 nM
[12] = target: Platelet-derived growth factor receptor beta (Homo sapiens) (UniProt P09619); conditions: Compound concentration 1000.0 nM
[13] = target: Mitogen-activated protein kinase kinase kinase kinase 2 (Homo sapiens) (UniProt Q12851); conditions: Compound concentration 1000.0 nM
[14] = target: Dual specificity mitogen-activated protein kinase kinase 1 (Homo sapiens) (UniProt Q02750); conditions: Compound concentration 1000.0 nM
[15] = target: Serine/threonine-protein kinase Sgk1 (Homo sapiens) (UniProt O00141); conditions: Compound concentration 1000.0 nM
Serine/threonine-protein kinase Sgk1 (Homo sapiens), sequence (O00141 whole entry): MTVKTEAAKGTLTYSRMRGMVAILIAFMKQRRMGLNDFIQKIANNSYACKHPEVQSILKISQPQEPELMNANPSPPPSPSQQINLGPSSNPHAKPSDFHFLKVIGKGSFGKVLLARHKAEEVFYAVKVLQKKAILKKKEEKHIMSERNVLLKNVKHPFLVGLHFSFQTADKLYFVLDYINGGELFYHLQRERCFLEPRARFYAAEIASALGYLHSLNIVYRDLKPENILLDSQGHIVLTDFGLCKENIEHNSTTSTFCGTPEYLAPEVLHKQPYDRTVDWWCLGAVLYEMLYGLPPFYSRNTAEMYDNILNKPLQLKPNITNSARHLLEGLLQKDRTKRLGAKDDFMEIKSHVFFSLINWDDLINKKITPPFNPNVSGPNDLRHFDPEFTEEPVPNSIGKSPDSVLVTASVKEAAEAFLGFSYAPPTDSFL

[16] = target: GABA-A receptor; anion channel (Rattus norvegicus) (UniProt O09028+P15431+P18506+P18508+P19969+P20236+P23574+P23576+P28471+P28473+P30191+P62813+P63079+P63138+Q91ZM7+Q9ES14); conditions: Compound concentration 10.0 uM
[17] = target: Cyclin-dependent kinase-like 5 (Homo sapiens) (UniProt O76039); conditions: Compound concentration 1000.0 nM
[18] = target: Phosphorylase b kinase regulatory subunit alpha, liver isoform (Homo sapiens) (UniProt P46019); conditions: Compound concentration 1000.0 nM
Phosphorylase b kinase regulatory subunit alpha, liver isoform (Homo sapiens), sequence (P46019 whole entry, canonical isoform): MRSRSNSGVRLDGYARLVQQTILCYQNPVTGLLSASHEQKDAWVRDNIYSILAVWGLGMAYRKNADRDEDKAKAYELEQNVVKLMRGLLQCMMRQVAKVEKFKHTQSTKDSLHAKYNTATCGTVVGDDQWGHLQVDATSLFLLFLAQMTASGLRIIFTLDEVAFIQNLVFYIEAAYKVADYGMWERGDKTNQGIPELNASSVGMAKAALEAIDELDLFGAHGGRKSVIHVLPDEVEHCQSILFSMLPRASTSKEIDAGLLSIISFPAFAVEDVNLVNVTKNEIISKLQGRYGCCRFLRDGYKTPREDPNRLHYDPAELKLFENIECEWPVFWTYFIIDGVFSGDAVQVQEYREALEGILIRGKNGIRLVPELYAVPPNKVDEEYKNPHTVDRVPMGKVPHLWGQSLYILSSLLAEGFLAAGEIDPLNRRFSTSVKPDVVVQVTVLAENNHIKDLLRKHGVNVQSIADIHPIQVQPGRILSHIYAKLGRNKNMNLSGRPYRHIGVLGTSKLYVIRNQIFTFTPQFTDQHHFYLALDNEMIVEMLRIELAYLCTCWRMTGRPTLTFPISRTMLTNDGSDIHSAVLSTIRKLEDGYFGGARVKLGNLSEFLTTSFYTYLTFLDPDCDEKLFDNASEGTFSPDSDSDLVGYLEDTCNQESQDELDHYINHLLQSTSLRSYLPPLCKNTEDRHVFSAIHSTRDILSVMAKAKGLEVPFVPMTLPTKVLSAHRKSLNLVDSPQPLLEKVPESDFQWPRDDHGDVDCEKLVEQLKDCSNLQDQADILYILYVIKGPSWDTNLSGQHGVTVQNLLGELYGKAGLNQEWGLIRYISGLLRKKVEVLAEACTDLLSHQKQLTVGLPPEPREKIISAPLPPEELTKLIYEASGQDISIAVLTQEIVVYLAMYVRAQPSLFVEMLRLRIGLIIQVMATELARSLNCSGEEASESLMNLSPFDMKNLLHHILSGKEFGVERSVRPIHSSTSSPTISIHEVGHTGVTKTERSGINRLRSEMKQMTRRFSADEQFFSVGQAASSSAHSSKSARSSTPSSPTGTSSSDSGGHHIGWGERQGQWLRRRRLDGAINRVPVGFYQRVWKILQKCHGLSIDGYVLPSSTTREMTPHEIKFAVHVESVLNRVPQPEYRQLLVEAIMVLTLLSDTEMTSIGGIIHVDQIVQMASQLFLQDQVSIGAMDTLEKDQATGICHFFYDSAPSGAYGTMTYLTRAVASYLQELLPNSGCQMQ

[19] = target: Serine/threonine-protein kinase 38-like (Homo sapiens) (UniProt Q9Y2H1); conditions: Compound concentration 1000.0 nM
[20] = target: Serine/threonine-protein kinase D1 (Homo sapiens) (UniProt Q15139); conditions: Compound concentration 1000.0 nM
Serine/threonine-protein kinase D1 (Homo sapiens), sequence (Q15139 whole entry): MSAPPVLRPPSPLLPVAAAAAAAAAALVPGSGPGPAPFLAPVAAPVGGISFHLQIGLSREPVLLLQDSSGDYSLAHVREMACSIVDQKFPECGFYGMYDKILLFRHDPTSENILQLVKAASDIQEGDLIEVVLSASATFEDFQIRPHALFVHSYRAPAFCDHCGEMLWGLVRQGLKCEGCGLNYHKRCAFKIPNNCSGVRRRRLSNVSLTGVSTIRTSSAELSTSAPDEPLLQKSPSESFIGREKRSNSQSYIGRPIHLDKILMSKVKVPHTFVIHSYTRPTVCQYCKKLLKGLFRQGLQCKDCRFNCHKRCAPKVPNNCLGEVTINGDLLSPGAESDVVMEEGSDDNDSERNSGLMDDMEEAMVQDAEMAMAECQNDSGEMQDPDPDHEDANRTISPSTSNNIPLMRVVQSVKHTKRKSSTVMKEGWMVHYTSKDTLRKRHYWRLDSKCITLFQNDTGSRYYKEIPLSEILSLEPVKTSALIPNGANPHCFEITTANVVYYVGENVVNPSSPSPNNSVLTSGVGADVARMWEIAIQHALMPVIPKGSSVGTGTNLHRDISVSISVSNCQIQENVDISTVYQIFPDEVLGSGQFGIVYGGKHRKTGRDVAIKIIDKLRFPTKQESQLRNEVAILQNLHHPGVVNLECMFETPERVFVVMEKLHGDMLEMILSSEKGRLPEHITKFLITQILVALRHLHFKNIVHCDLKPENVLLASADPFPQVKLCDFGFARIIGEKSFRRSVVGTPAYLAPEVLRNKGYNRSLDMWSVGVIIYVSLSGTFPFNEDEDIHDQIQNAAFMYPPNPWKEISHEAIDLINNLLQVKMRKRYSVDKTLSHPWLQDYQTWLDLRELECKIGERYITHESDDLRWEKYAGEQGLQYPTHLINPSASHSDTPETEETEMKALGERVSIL

[21] = tested on: Tyrosine-protein kinase ABL1 (Homo sapiens), P00519 [Y253F]; conditions: Compound concentration 1000.0 nM
[22] = target: STE20/SPS1-related proline-alanine-rich protein kinase (Homo sapiens) (UniProt Q9UEW8); conditions: Compound concentration 1000.0 nM
[23] = target: Serine/threonine-protein kinase PLK1 (Homo sapiens) (UniProt P53350); conditions: Compound concentration 1000.0 nM
[24] = target: Atypical kinase COQ8A, mitochondrial (Homo sapiens) (UniProt Q8NI60); conditions: Compound concentration 1000.0 nM
[25] = tested on: Epidermal growth factor receptor (Homo sapiens), P00533 [UNDEFINED MUTATION]; conditions: Compound concentration 1000.0 nM
[26] = target: Serine/threonine-protein kinase Nek11 (Homo sapiens) (UniProt Q8NG66); conditions: Compound concentration 1000.0 nM
[27] = target: Receptor-interacting serine/threonine-protein kinase 4 (Homo sapiens) (UniProt P57078); conditions: Compound concentration 1000.0 nM
[28] = target: Wee1-like protein kinase 2 (Homo sapiens) (UniProt P0C1S8); conditions: Compound concentration 1000.0 nM
Wee1-like protein kinase 2 (Homo sapiens), sequence (P0C1S8 whole entry, looked up): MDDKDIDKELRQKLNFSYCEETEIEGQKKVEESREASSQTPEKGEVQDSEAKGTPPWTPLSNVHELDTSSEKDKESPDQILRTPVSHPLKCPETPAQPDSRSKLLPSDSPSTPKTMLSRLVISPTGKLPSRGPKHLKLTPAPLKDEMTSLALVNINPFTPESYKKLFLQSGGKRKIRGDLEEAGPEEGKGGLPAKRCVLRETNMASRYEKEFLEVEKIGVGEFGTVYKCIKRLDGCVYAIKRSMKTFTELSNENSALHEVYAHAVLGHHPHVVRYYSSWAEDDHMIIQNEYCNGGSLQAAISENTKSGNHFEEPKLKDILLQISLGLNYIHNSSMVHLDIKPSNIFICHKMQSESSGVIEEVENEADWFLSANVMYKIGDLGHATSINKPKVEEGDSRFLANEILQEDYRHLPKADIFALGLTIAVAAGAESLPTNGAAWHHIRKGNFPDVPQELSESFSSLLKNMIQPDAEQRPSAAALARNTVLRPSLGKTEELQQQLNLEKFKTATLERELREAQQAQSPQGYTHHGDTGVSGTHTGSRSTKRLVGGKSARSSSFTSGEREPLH

[29] = target: Fibroblast growth factor receptor 2 (Homo sapiens) (UniProt P21802); conditions: Compound concentration 1000.0 nM
[30] = target: Cyclin-dependent kinase-like 3 (Homo sapiens) (UniProt Q8IVW4); conditions: Compound concentration 1000.0 nM
[31] = tested on: Mast/stem cell growth factor receptor Kit (Homo sapiens), P10721 [D816H]; conditions: Compound concentration 1000.0 nM
Mast/stem cell growth factor receptor Kit (Homo sapiens), P10721 [D816H], sequence (P10721 whole entry D816H): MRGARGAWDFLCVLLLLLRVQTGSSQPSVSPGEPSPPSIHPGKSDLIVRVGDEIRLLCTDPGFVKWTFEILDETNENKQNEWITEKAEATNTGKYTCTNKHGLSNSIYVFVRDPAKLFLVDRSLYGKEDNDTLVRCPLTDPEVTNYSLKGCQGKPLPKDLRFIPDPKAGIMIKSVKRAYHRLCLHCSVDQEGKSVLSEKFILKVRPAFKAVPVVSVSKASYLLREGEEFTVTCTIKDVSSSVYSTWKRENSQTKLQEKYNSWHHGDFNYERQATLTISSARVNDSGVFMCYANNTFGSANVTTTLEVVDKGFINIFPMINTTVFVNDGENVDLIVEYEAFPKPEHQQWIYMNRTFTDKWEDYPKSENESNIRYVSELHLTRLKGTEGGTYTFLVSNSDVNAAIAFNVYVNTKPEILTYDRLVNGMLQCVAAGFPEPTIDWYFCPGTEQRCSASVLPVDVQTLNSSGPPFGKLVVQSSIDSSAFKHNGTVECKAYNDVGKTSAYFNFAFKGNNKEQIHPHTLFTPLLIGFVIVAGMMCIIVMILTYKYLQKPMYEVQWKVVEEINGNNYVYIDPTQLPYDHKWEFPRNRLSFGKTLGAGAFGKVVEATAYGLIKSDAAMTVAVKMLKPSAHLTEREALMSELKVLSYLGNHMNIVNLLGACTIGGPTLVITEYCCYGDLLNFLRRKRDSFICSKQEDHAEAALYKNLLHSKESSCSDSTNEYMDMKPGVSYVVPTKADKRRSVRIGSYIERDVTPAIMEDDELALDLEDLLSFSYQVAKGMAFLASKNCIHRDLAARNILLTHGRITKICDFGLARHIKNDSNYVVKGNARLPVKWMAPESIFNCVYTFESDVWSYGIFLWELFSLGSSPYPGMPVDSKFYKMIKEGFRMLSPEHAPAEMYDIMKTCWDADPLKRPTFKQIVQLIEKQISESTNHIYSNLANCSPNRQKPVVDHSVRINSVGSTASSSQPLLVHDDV

[32] = target: Myosin light chain kinase 2, skeletal/cardiac muscle (Homo sapiens) (UniProt Q9H1R3); conditions: Compound concentration 1000.0 nM
[33] = tested on: Phosphatidylinositol 4,5-bisphosphate 3-kinase catalytic subunit alpha isoform (Homo sapiens), P42336 [E545K]; conditions: Compound concentration 1000.0 nM
[34] = target: Serine/threonine-protein kinase Nek1 (Homo sapiens) (UniProt Q96PY6); conditions: Compound concentration 1000.0 nM
[35] = target: Dual specificity tyrosine-phosphorylation-regulated kinase 2 (Homo sapiens) (UniProt Q92630); conditions: Compound concentration 1000.0 nM
Dual specificity tyrosine-phosphorylation-regulated kinase 2 (Homo sapiens), sequence (Q92630 whole entry): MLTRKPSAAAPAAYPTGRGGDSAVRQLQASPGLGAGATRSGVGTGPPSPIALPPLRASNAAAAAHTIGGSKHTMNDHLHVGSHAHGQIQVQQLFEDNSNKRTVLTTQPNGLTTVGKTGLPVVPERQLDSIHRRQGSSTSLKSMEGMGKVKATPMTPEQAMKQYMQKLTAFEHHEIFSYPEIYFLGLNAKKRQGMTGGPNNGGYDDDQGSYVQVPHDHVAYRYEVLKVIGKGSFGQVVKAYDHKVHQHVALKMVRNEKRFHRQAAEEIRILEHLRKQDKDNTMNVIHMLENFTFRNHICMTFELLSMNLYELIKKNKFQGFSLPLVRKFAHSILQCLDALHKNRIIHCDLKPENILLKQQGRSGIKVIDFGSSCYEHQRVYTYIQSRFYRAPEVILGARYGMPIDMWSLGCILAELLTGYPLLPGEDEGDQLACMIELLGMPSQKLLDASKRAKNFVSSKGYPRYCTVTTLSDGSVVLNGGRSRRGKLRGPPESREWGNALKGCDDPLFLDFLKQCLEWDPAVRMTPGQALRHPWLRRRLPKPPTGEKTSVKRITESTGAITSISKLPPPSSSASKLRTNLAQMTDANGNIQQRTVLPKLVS

[36] = target: Vascular endothelial growth factor receptor 3 (Homo sapiens) (UniProt P35916); conditions: Compound concentration 1000.0 nM
[37] = target: Calcium/calmodulin-dependent protein kinase type 1D (Homo sapiens) (UniProt Q8IU85); conditions: Compound concentration 1000.0 nM
[38] = target: Serine/threonine-protein kinase OSR1 (Homo sapiens) (UniProt O95747); conditions: Compound concentration 1000.0 nM
[39] = target: Ephrin type-B receptor 1 (Homo sapiens) (UniProt P54762); conditions: Compound concentration 1000.0 nM
[40] = tested on: Tyrosine-protein kinase ABL1 (Homo sapiens), P00519 [H396P]; conditions: Compound concentration 1000.0 nM
[41] = target: D(1B) dopamine receptor (Homo sapiens) (UniProt P21918); conditions: Compound concentration 10.0 uM
[42] = target: Serine/threonine-protein kinase LATS1 (Homo sapiens) (UniProt O95835); conditions: Compound concentration 1000.0 nM
[43] = target: Serine/threonine-protein kinase DCLK3 (Homo sapiens) (UniProt Q9C098); conditions: Compound concentration 1000.0 nM

Nc1cnc(N2CCc3cc(S(=O)(=O)Nc4c(F)cc(Cl)cc4F)cc(N4CCCC4=O)c32)nc1
residual activity [1]: 100%
residual activity [2]: 100%
residual activity [3]: 100%
residual activity [4]: 71%
residual activity [5]: 85%
residual activity [6]: 88%
residual activity [7]: 83%
residual activity [8]: 100%
residual activity [9]: 100%
residual activity [10]: 100%
residual activity [11]: 100%
residual activity [12]: 100%
residual activity [13]: 90%
residual activity [14]: 100%
residual activity [15]: 100%
inhibition [16]: -1.96%
residual activity [17]: 88%
residual activity [18]: 100%
residual activity [19]: 42%
residual activity [20]: 83%
residual activity [21]: 94%
residual activity [22]: 100%
residual activity [23]: 100%
residual activity [24]: 100%
residual activity [25]: 74%
residual activity [26]: 100%
residual activity [27]: 76%
residual activity [28]: 93%
residual activity [29]: 100%
residual activity [30]: 100%
residual activity [31]: 100%
residual activity [32]: 87%
residual activity [33]: 100%
residual activity [34]: 46%
residual activity [35]: 89%
residual activity [36]: 86%
residual activity [37]: 97%
residual activity [38]: 75%
residual activity [39]: 92%
residual activity [40]: 86%
inhibition [41]: 7.88%
residual activity [42]: 100%
residual activity [43]: 85%

Cn1nc(C(F)(F)F)cc1-c1cnc(N2CCc3cc(S(=O)(=O)Nc4c(F)cc(Cl)cc4F)cc(N4CCCC4=O)c32)nc1 [TP-020]
residual activity [1]: 99%
residual activity [2]: 100%
residual activity [3]: 100%
residual activity [4]: 98%
residual activity [5]: 89%
residual activity [6]: 92%
residual activity [7]: 99%
residual activity [8]: 100%
residual activity [9]: 85%
residual activity [10]: 97%
residual activity [11]: 95%
residual activity [12]: 90%
residual activity [13]: 95%
residual activity [14]: 95%
residual activity [15]: 100%
inhibition [16]: 35.9%
residual activity [17]: 91%
residual activity [18]: 96%
residual activity [19]: 88%
residual activity [20]: 80%
residual activity [21]: 95%
residual activity [22]: 91%
residual activity [23]: 93%
residual activity [24]: 100%
residual activity [25]: 100%
residual activity [26]: 78%
residual activity [27]: 67%
residual activity [28]: 100%
residual activity [29]: 100%
residual activity [30]: 100%
residual activity [31]: 77%
residual activity [32]: 100%
residual activity [33]: 82%
residual activity [34]: 100%
residual activity [35]: 87%
residual activity [36]: 96%
residual activity [37]: 99%
residual activity [38]: 99%
residual activity [39]: 100%
residual activity [40]: 87%
inhibition [41]: 42.5%
residual activity [42]: 99%
residual activity [43]: 86%
